The values that follow come from the Deep4Chem optical property database.

A short description of this data set: photoluminescence quantum yield (fraction); solvent given as SMILES.

Take `CN(C)c1ccc(-c2ccc(C#N)s2)s1`: the photoluminescence quantum yield (in CCO) was 0.23.

The compound `CCCCCCN1C(=O)c2cccc3cc(/N=C\c4ccc5c(c4)c4ccccc4n5CC)cc(c23)C1=O` came in with a photoluminescence quantum yield (in ClC(Cl)Cl) of 0.021.

Turning to `CCOC(=O)C1=C(N)n2c(=O)c3ccccc3c(=O)n2C1c1ccc(C)cc1` (stereo unspecified), the photoluminescence quantum yield (in CS(C)=O) is 0.063.

With `Cc1ccc(-c2ccc(-c3ccc(C)cc3)c(/C(=C(/c3ccccc3)c3cc(-c4ccc(C)cc4)ccc3-c3ccc(C)cc3)c3ccccc3)c2)cc1`, the photoluminescence quantum yield (in C1CCOC1) was 0.32.

`Cc1cc2oc3ccccc3c2c2[nH]c3ccccc3c12` returned a photoluminescence quantum yield (in ClCCl) of 0.485.

For `Cc1cc(C2=C(c3cc(C)sc3C)S(=O)(=O)c3ccccc32)c(C)s1`, for the setting “in C1CCOC1”, the photoluminescence quantum yield turned out to be 0.016.

Turning to `C(=C1c2ccccc2CCc2ccccc21)c1ccc(-c2ccc(C=C3c4ccccc4CCc4ccccc43)cc2)cc1`, under “in C1CCOC1”, the photoluminescence quantum yield was determined as 0.0033.

Turning to `Oc1ccc2ccccc2c1`, the photoluminescence quantum yield (in C1CCCCC1) stood at 0.51.

As to `CC1=C(c2ccc(N(c3ccccc3)c3ccccc3)cc2)C(C)=[N+]2C1=C(c1c(-c3ccccn3)nc3ccccn13)c1c(C)c(-c3ccc(N(c4ccccc4)c4ccccc4)cc3)c(C)n1[B-]2(F)F`, under “in ClCCl”, the photoluminescence quantum yield came out at 0.0078.

`C1=C(c2ccccc2)S[C@]23C1=C(c1ccccc1)[C@H](c1ccccc12)c1ccccc13`: the photoluminescence quantum yield (in ClCCl) came out at 1.

As to `CCC(CC)n1c2ccccc2c2cc3c(cc21)c1ccccc1n3C(CC)CC`, the photoluminescence quantum yield (in ClC(Cl)Cl) worked out at 0.16.

Regarding `CC(C)(C)c1ccc(N(c2ccc(S(=O)(=O)c3ccc(S(=O)(=O)c4ccc(N(c5ccc(C(C)(C)C)cc5)c5ccccc5C(C)(C)C)cc4)cc3)cc2)c2ccccc2C(C)(C)C)cc1`, for the setting “in Cc1ccccc1”, the photoluminescence quantum yield came to 0.8.

`CNc1cccc2c1C(=O)c1ccccc1-2` gave a photoluminescence quantum yield (in C1CCCCC1) of 0.042, a photoluminescence quantum yield (in CC#N) of 0.065, a photoluminescence quantum yield (in CCO) of 0.064 and a photoluminescence quantum yield (in c1ccccc1) of 0.065.

Turning to `CCCCCCCCCCCCNc1cccc2[n+]1[B-](F)(F)n1c(c3cccc4cccc1c43)=N2`, the photoluminescence quantum yield was 0.18 (in C1CCOC1); 0.12 (in CC#N); 0.58 (in CCCCCC); 0.36 (in Cc1ccccc1); 0.25 (in ClCCl).

Consider `C(#Cc1ncc(-c2ccccc2)o1)c1ccco1`, for which the photoluminescence quantum yield (in ClCCl) turned out to be 0.

Regarding `CC1=CC(C)=[N+]2C1=C(c1ccc(C)cc1)c1c(C)cc(/C=C/c3ccc4ccc5cccc6ccc3c4c56)n1[B-]2(F)F`, the photoluminescence quantum yield (in CC1CCCO1) was 0.64.

Turning to `CC1=N/C(=C\c2ccccc2N)C(=O)N1C`, the photoluminescence quantum yield came out at 0.002 (in C1CCCCC1); 0.009 (in C1CCOC1); 0.004 (in CC#N); 0.002 (in CO); 0.007 (in CS(C)=O); 0.004 (in ClCCl). The compound also yielded a photoluminescence quantum yield (in O) of 0.001.

Turning to `C1=Cc2ccccc2C(=Cc2ccc(-c3ccc(C=C4c5ccccc5-c5ccccc54)cc3)cc2)c2ccccc21`, the photoluminescence quantum yield (in C1CCOC1) was 0.00016.

With `CC[N+]1(CC)CN2C(C)=CC(C)=C(C(=O)O)C2=N1`, the photoluminescence quantum yield was 0.056 (in CN(C)C=O) and 0.622 (in O).

Where the note is “in C1CCOC1”, `C1=Cc2ccccc2C(=Cc2ccc(-c3ccc(C=C4c5ccccc5C=Cc5ccccc54)cc3)cc2)c2ccccc21` yielded a photoluminescence quantum yield of 0.00012.

`Cc1cc(C)c(-c2nnc(-c3ccc(-n4c5ccccc5c5ccccc54)cc3)o2)c(C)c1` gave a photoluminescence quantum yield (in Cc1ccccc1) of 0.59.

As for `COc1ccc(C2=CC3=C(c4c(C)cc(C)cc4C)c4cc(-c5ccc(OC)cc5)c(-c5ccc(OC)cc5)n4[B-](F)(F)[N+]3=C2c2ccc(OC)cc2)cc1`, the photoluminescence quantum yield reads like this: (in C1CCCCC1) 0.64; (in C1CCOC1) 0.42; (in CC#N) 0.24; (in Cc1ccccc1) 0.51; (in ClCCl) 0.42.

For the setting “in CC#N”, `CCCCCCCCCCOc1cc2cc(C#Cc3ccc(/C=C(\C#N)C(=O)O)cc3)c(=O)oc2cc1OCCCCCCCCCC` returned a photoluminescence quantum yield of 0.05.

Take `CC1(C)c2ccccc2N(c2ccc(-c3ccc4c(c3)C(=O)c3ccc(-c5ccc(N6c7ccccc7C(C)(C)c7ccccc76)cc5)cc3C4=O)cc2)c2ccccc21`: the photoluminescence quantum yield stood at 0.17 (in Cc1ccccc1) and 0.5 (in c1ccc2c(c1)c1ccccc1n2-c1ccc(-c2ccc(-n3c4ccccc4c4ccccc43)cc2)cc1).

On to `CN(C)c1ccc2nc(-c3ccc(/C=N/c4ccccc4)cc3)sc2c1`, for which the photoluminescence quantum yield is, setting by setting: (in C1CCCCC1) 0.057; (in CC#N) 0.72; (in CO) 0.067; (in ClC(Cl)Cl) 0.12.

`Cc1cccc(-c2[nH]c(=O)n3c2-c2ccccc2C3=O)c1O`: the photoluminescence quantum yield was determined as 0.52 (in CC#N), 0.15 (in CO) and 0.6 (in ClCCl).

`COc1cnc(-c2cc[n+](C3=C(F)C(F)(F)C(F)(F)[C-]3F)cc2)s1`: the photoluminescence quantum yield runs as follows: (in CC#N) 0.64; (in CC(C)=O) 0.44; (in CCO) 0.21; (in CN(C)C=O) 0.04; (in CO) 0.08; (in CS(C)=O) 0.02. The photoluminescence quantum yield worked out at 0.73 (in ClC(Cl)Cl) and 0.76 (in ClCCl).

For `CCCCCCCCC1(CCCCCCCC)c2cc(-c3ccc(C(F)(F)F)cc3)ccc2-c2ccc(N(c3ccc(-n4c5ccccc5c5ccccc54)cc3)c3ccc4c(c3)C(CCCCCCCC)(CCCCCCCC)c3cc(-c5ccc(C(F)(F)F)cc5)ccc3-4)cc21`, the photoluminescence quantum yield by setting is: (in C1CCOC1) 0.61; (in C1COCCO1) 0.71; (in CC#N) 0.46; (in CC(C)=O) 0.51; (in CCCCCC) 0.6; (in CCCCOCCCC) 0.67. Also, the photoluminescence quantum yield turned out to be 0.52 (in CCN(CC)CC); 0.54 (in CCOC(C)=O); 0.76 (in CCOCC); 0.52 (in CN(C)C=O); 0.47 (in CS(C)=O); 0.67 (in Cc1ccccc1). The photoluminescence quantum yield turned out to be 0.47 (in ClC(Cl)Cl), 0.57 (in ClCCl) and 0.63 (in c1ccccc1).

Take `Cc1cc(=O)oc2cc3cc(O)ccc3cc12`: the photoluminescence quantum yield is, setting by setting: (in CC#N) 0.02; (in CCO) 0.35.

On to `CCCCCCCCc1ccc(-c2ccc(/C=C(\C#N)c3ccc(-c4cccc5cccc(-c6ccc(/C(C#N)=C/c7ccc(-c8ccc(CCCCCCCC)cc8)cc7)cc6)c45)cc3)cc2)cc1`, for which, under “in Cc1ccccc1”, the photoluminescence quantum yield amounted to 0.12.

Regarding `O=S1(=O)c2ccc(-c3ccc(-n4c5ccccc5c5ccccc54)cc3)cc2C2(c3ccccc3-c3ccccc32)c2cc(-c3ccc(-n4c5ccccc5c5ccccc54)cc3)ccc21`, the photoluminescence quantum yield (in ClCCl) turned out to be 0.86.

On to `C(=C\c1cnc2ccccc2n1)/c1ccc(N(c2ccccc2)c2ccccc2)cc1`, for which the photoluminescence quantum yield (in ClCCl) amounted to 0.67.

With `C(#Cc1c(C#Cc2cccs2)c(C#Cc2cccs2)c(C#Cc2cccs2)c(C#Cc2cccs2)c1C#Cc1cccs1)c1cccs1`, the photoluminescence quantum yield (in ClCCl) was 0.27.

Compound `Cc1ccc(-n2c(-c3ccccc3[N-]S(=O)(=O)c3ccc(C)cc3)[nH+]c3c4ccccc4c4ccccc4c32)cc1` yielded a photoluminescence quantum yield (in Cc1ccccc1) of 0.468.

Regarding `CC(C)(C)NC(=O)c1cccc2ccc3c4ccc(Cl)cc4c4cc(Cl)ccc4c3c12`, the photoluminescence quantum yield (in ClCCl) is 0.02.

As for `CN(C)c1ccc(C#Cc2ccccc2)cc1`, the photoluminescence quantum yield is 0.35 (in C1CCCCC1); 0.244 (in C1CCOC1); 0.32 (in C1COCCO1); 0.314 (in CC1CCCO1); 0.102 (in CC#N); 0.103 (in CC(C)=O). Further, the photoluminescence quantum yield reads like this: (in CC(C)CC(C)(C)C) 0.28; (in CC(C)O) 0.011; (in CCCCCCCCCCCCCCCC) 0.372; (in CCCCCCCCCCCCCCCCCl) 0.409; (in CCOC(C)=O) 0.25; (in CCOCC) 0.11. Moreover, the photoluminescence quantum yield is, setting by setting: (in CN(C)C=O) 0.3; (in CO) 0.01; (in CS(C)=O) 0.29; (in Cc1ccccc1) 0.39.

On to `Cc1cc2c3ccccc3n(C)c2c2c1c1ccccc1n2C`, for which the photoluminescence quantum yield (in ClCCl) stood at 0.114.

`COc1ccc(C(=O)OCc2c(C)c(=O)n3c(=O)c(C)c(C)n23)cc1` gave a photoluminescence quantum yield (in CCO) of 0.637.

With `Cc1ccc(C2=Cc3ccc4ccccc4[n+]3[B-](F)(F)O2)cc1`, the photoluminescence quantum yield (in ClC(Cl)Cl) was 0.75.

On to `CCCC1(CCC)c2ccccc2-c2ccc(-c3ccc(OC)cc3)cc21`, for which the photoluminescence quantum yield (in C1CCCCC1) was 0.41.

In the case of `Cc1cc(C)c(B(c2ccc(-c3ccc(-c4nc5c6ccccc6c6ccccc6c5[nH]4)cc3)cc2)c2c(C)cc(C)cc2C)c(C)c1`, the photoluminescence quantum yield by setting is: (in C1CCOC1) 0.74; (in CC(C)=O) 0.56; (in CS(C)=O) 0.49; (in Cc1ccccc1) 0.68; (in ClCCl) 0.59.

For the compound `COc1cc2c(cc1OC)C1=C[C@H](c3ccc(Cl)cc3)C3(C(C#N)=C(C#N)N1CC2)c1ccccc1-c1ccccc13`, the photoluminescence quantum yield (in ClCCl) amounted to 0.00044.

As for `COc1ccc(C2=C/C(=C\c3ccccc3)C(=O)N2)cc1OC`, the photoluminescence quantum yield (in C1COCCO1) was 0.108.

Take `O=Cc1ccc(C#CC(C#Cc2ccc(C=O)o2)=Cc2ccc(C=C(C#Cc3ccc(C=O)o3)C#Cc3ccc(C=O)o3)cc2)o1`: the photoluminescence quantum yield (in ClC(Cl)Cl) was 0.11.

`CCOC(=O)c1c2c3c(ccc(F)c3c3cc4ccccc4cc13)N(C)C2=O` returned a photoluminescence quantum yield (in CC#N) of 0.41.

Regarding `C(=C(c1ccccc1)c1ccccc1)c1ccc(-c2cc(-c3ccc(C=C(c4ccccc4)c4ccccc4)cc3)cc(-c3ccc(C=C(c4ccccc4)c4ccccc4)cc3)c2)cc1`, the photoluminescence quantum yield (in C1CCOC1) was found to be 0.0045.
